Measured values as given in ChEMBL document CHEMBL4229455, “Synthesis and anticancer activity of novel bisindolylhydroxymaleimide derivatives with potent GSK-3 kinase inhibition” (Bioorg Med Chem, 2018).

Assays:
Type in all cases: functional
UACC-257 = assay: Cytotoxicity against human UACC257 cells assessed as cell growth at 0.01 uM after 48 hrs by SRB assay relative to control; settings: UACC-257, 48 h, read-out: Activity
OVCAR-3 [1] = assay: Cytotoxicity against human OVCAR3 cells assessed as cell growth at 0.01 uM after 48 hrs by SRB assay relative to control; settings: OVCAR-3, 48 h, read-out: Activity
BT-549 [2] = assay: Cytotoxicity against human BT549 cells assessed as cell growth at 0.01 uM after 48 hrs by SRB assay relative to control; settings: BT-549, 48 h, read-out: Activity
MDA-MB-468 [3] = assay: Cytotoxicity against human MDA-MB-468 cells assessed as cell growth at 0.01 uM after 48 hrs by SRB assay relative to control; settings: MDA-MB-468, 48 h, read-out: Activity
HL-60(TB) [4] = assay: Cytotoxicity against human HL-60(TB) cells assessed as cell growth at 0.1 uM after 48 hrs by SRB assay relative to control; settings: HL-60, 48 h, read-out: Activity
SF-295 [5] = assay: Cytotoxicity against human SF295 cells assessed as cell growth at 0.1 uM after 48 hrs by SRB assay relative to control; settings: SF-295, 48 h, read-out: Activity
SNB-19 = assay: Cytotoxicity against human SNB19 cells assessed as cell growth at 0.1 uM after 48 hrs by SRB assay relative to control; settings: SNB-19, 48 h, read-out: Activity
Malme-3M = assay: Cytotoxicity against human MALME-3M cells assessed as cell growth at 0.1 uM after 48 hrs by SRB assay relative to control; settings: read-out: Activity
OVCAR-5 = assay: Cytotoxicity against human OVCAR5 cells assessed as cell growth at 0.1 uM after 48 hrs by SRB assay relative to control; settings: OVCAR-5, 48 h, read-out: Activity
ACHN = assay: Cytotoxicity against human ACHN cells assessed as cell growth at 0.1 uM after 48 hrs by SRB assay relative to control; settings: read-out: Activity
T47D = assay: Cytotoxicity against human T47D cells assessed as cell growth at 0.1 uM after 48 hrs by SRB assay relative to control; settings: read-out: Activity
K562 = assay: Cytotoxicity against human K562 cells assessed as cell growth at 1 uM after 48 hrs by SRB assay relative to control; settings: K562, 48 h, read-out: Activity
MOLT-4 = assay: Cytotoxicity against human MOLT4 cells assessed as cell growth at 1 uM after 48 hrs by SRB assay relative to control; settings: MOLT-4, 48 h, read-out: Activity
SR [6] = assay: Cytotoxicity against human SR cells assessed as cell growth at 1 uM after 48 hrs by SRB assay relative to control; settings: read-out: Activity
HOP-92 [7] = assay: Cytotoxicity against human HOP92 cells assessed as cell growth at 1 uM after 48 hrs by SRB assay relative to control; settings: HOP-92, 48 h, read-out: Activity
NCI-H23 = assay: Cytotoxicity against human NCI-H23 cells assessed as cell growth at 1 uM after 48 hrs by SRB assay relative to control; settings: NCI-H23, 48 h, read-out: Activity
NCI-H460 [8] = assay: Cytotoxicity against human NCI-H460 cells assessed as cell growth at 1 uM after 48 hrs by SRB assay relative to control; settings: NCI-H460, 48 h, read-out: Activity
IGROV-1 = assay: Cytotoxicity against human IGROV1 cells assessed as cell growth at 1 uM after 48 hrs by SRB assay relative to control; settings: IGROV-1, 48 h, read-out: Activity
OVCAR-3 [9] = assay: Cytotoxicity against human OVCAR3 cells assessed as cell growth at 1 uM after 48 hrs by SRB assay relative to control; settings: OVCAR-3, 48 h, read-out: Activity
786-0 = assay: Cytotoxicity against human 786-O cells assessed as cell growth at 1 uM after 48 hrs by SRB assay relative to control; settings: 786-0, 48 h, read-out: Activity
SN12C [10] = assay: Cytotoxicity against human SN12C cells assessed as cell growth at 1 uM after 48 hrs by SRB assay relative to control; settings: read-out: Activity
HOP-92 [11] = assay: Cytotoxicity against human HOP92 cells assessed as cell growth at 100 uM after 48 hrs by SRB assay relative to control; settings: HOP-92, 48 h, read-out: Activity
OVCAR-3 [12] = assay: Cytotoxicity against human OVCAR3 cells assessed as cell growth at 100 uM after 48 hrs by SRB assay relative to control; settings: OVCAR-3, 48 h, read-out: Activity
SN12C [13] = assay: Cytotoxicity against human SN12C cells assessed as cell growth at 100 uM after 48 hrs by SRB assay relative to control; settings: read-out: Activity
BT-549 [14] = assay: Cytotoxicity against human BT549 cells assessed as cell growth at 100 uM after 48 hrs by SRB assay relative to control; settings: BT-549, 48 h, read-out: Activity
HL-60(TB) [15] = assay: Cytotoxicity against human HL-60(TB) cells after 48 hrs by SRB assay; settings: HL-60, 48 h
SR [16] = assay: Cytotoxicity against human SR cells after 48 hrs by SRB assay
A549 = assay: Cytotoxicity against human A549 cells after 48 hrs by SRB assay; settings: A549, 48 h; for CC50: read-out: LC50 (the source's name)
NCI-H226 = assay: Cytotoxicity against human NCI-H226 cells after 48 hrs by SRB assay; settings: NCI-H226, 48 h
NCI-H460 [17] = assay: Cytotoxicity against human NCI-H460 cells after 48 hrs by SRB assay; settings: NCI-H460, 48 h
NCI-H522 = assay: Cytotoxicity against human NCI-H522 cells after 48 hrs by SRB assay; settings: NCI-H522, 48 h
SF-268 = assay: Cytotoxicity against human SF268 cells after 48 hrs by SRB assay; settings: SF-268, 48 h; for CC50: read-out: LC50 (the source's name)
SF-295 [18] = assay: Cytotoxicity against human SF295 cells after 48 hrs by SRB assay; settings: SF-295, 48 h; for CC50: read-out: LC50 (the source's name)
LOX IMVI = assay: Cytotoxicity against human LOXIMVI cells after 48 hrs by SRB assay
A498 = assay: Cytotoxicity against human A498 cells after 48 hrs by SRB assay; settings: A498, 48 h
SN12C [19] = assay: Cytotoxicity against human SN12C cells after 48 hrs by SRB assay; settings: for CC50: read-out: LC50 (the source's name)
BT-549 [20] = assay: Cytotoxicity against human BT549 cells after 48 hrs by SRB assay; settings: BT-549, 48 h
MDA-MB-468 [21] = assay: Cytotoxicity against human MDA-MB-468 cells after 48 hrs by SRB assay; settings: MDA-MB-468, 48 h

## N#CCCCCCn1cc(C2=C(c3cn(CCCCCC#N)c4ccccc34)C(=O)N(O)C2=O)c2ccccc21
UACC-257
  growth at 0.01 µM: 97%
OVCAR-3 [1]
  growth at 0.01 µM: 99%
BT-549 [2]
  growth at 0.01 µM: 101%
MDA-MB-468 [3]
  growth at 0.01 µM: 106%
HL-60(TB) [4]
  growth at 0.1 µM: 89%
SF-295 [5]
  growth at 0.1 µM: 91%
SNB-19
  growth at 0.1 µM: 95%
Malme-3M
  growth at 0.1 µM: 94%
OVCAR-5
  growth at 0.1 µM: 89%
ACHN
  growth at 0.1 µM: 91%
T47D
  growth at 0.1 µM: 89%
K562
  growth at 1 µM: 94%
MOLT-4
  growth at 1 µM: 85%
SR [6]
  growth at 1 µM: 114%
HOP-92 [7]
  growth at 1 µM: 109%
NCI-H23
  growth at 1 µM: 94%
NCI-H460 [8]
  growth at 1 µM: 101%
IGROV-1
  growth at 1 µM: 104%
OVCAR-3 [9]
  growth at 1 µM: 101%
786-0
  growth at 1 µM: 100%
SN12C [10]
  growth at 1 µM: 93%
HOP-92 [11]
  growth at 100 µM: 11%
OVCAR-3 [12]
  growth at 100 µM: -34%
SN12C [13]
  growth at 100 µM: 5%
BT-549 [14]
  growth at 100 µM: -26%
HL-60(TB) [15]
  GI50: 2.54 µM
  LC50: > 100 µM
  TGI: 6.44 µM
SR [16]
  GI50: 3.55 µM
  LC50: > 100 µM
  TGI: 9.48 µM
A549
  GI50: 10.4 µM
  TGI: > 100 µM
  CC50: > 100 µM
NCI-H226
  GI50: 7.26 µM
  LC50: > 100 µM
  TGI: 70.8 µM
NCI-H460 [17]
  GI50: 5.05 µM
  LC50: > 100 µM
  TGI: 33 µM
NCI-H522
  GI50: 2.59 µM
  LC50: > 100 µM
  TGI: 10.5 µM
SF-268
  GI50: 10.1 µM
  TGI: > 100 µM
  CC50: > 100 µM
SF-295 [18]
  GI50: 5.93 µM
  TGI: 31.4 µM
  CC50: > 100 µM
LOX IMVI
  GI50: 2.53 µM
  LC50: > 100 µM
  TGI: 48.1 µM
A498
  GI50: 2.36 µM
  LC50: > 100 µM
  TGI: 86 µM
SN12C [19]
  GI50: 8.47 µM
  TGI: > 100 µM
  CC50: > 100 µM
BT-549 [20]
  GI50: 3.44 µM
  LC50: > 100 µM
  TGI: 24.5 µM
MDA-MB-468 [21]
  GI50: 3.47 µM
  LC50: > 100 µM
  TGI: 13.9 µM

## Cn1cc(C2=C(c3cn(C)c4ncccc34)C(=O)NC2=O)c2ccccc21
UACC-257
  growth at 0.01 µM: 104%
OVCAR-3 [1]
  growth at 0.01 µM: 107%
BT-549 [2]
  growth at 0.01 µM: 110%
MDA-MB-468 [3]
  growth at 0.01 µM: 101%
HL-60(TB) [4]
  growth at 0.1 µM: 99%
SF-295 [5]
  growth at 0.1 µM: 93%
SNB-19
  growth at 0.1 µM: 91%
Malme-3M
  growth at 0.1 µM: 112%
OVCAR-5
  growth at 0.1 µM: 102%
ACHN
  growth at 0.1 µM: 99%
T47D
  growth at 0.1 µM: 100%
K562
  growth at 1 µM: 76%
MOLT-4
  growth at 1 µM: 101%
SR [6]
  growth at 1 µM: 51%
HOP-92 [7]
  growth at 1 µM: 76%
NCI-H23
  growth at 1 µM: 84%
NCI-H460 [8]
  growth at 1 µM: 89%
IGROV-1
  growth at 1 µM: 117%
OVCAR-3 [9]
  growth at 1 µM: 98%
786-0
  growth at 1 µM: 98%
SN12C [10]
  growth at 1 µM: 76%
HOP-92 [11]
  growth at 100 µM: -21%
OVCAR-3 [12]
  growth at 100 µM: -19%
SN12C [13]
  growth at 100 µM: -14%
BT-549 [14]
  growth at 100 µM: -30%
HL-60(TB) [15]
  GI50: 4.05 µM
  TGI: 17.9 µM
SR [16]
  GI50: 1.04 µM
  TGI: 18.4 µM
A549
  GI50: 3.49 µM
  TGI: 33.2 µM
  CC50: > 100 µM
NCI-H226
  GI50: 2.24 µM
  TGI: 6.84 µM
NCI-H460 [17]
  GI50: 3.8 µM
  TGI: 22 µM
NCI-H522
  GI50: 5.05 µM
  TGI: 32.4 µM
SF-268
  GI50: 4.86 µM
  TGI: 48.4 µM
  CC50: > 100 µM
SF-295 [18]
  GI50: 2.61 µM
  TGI: 10.3 µM
  CC50: > 100 µM
LOX IMVI
  GI50: 2.61 µM
  TGI: 30.2 µM
A498
  GI50: 0.32 µM
  TGI: 2.34 µM
SN12C [19]
  GI50: 2.31 µM
  TGI: 16.2 µM
  CC50: > 100 µM
BT-549 [20]
  GI50: 2.36 µM
  TGI: 8.09 µM
MDA-MB-468 [21]
  GI50: 2.22 µM
  TGI: 9.46 µM
